Converted amounts (≈) assume the structure as drawn.
Key:
[1] = tested on: Citrobacter freundii; experiment: Antimicrobial activity against Citrobacter freundii SZ63T expressing IMP-4, qnrS1by CLSI method; type: functional
[2] = tested on: Escherichia coli; experiment: Antimicrobial activity against carbapenem-resistant Escherichia coli HX74 deficient in TEM-1, CTX-M-14, CTX-M-3, aac(6')-Ibcr, ompC/F by CLSI method; type: functional
[3] = tested on: Klebsiella pneumoniae; experiment: Antimicrobial activity against carbapenem-resistant Klebsiella pneumoniae PU104 deficient in TEM-1, SHV-11, CTX-M-15, qnrS1, ompK35/36 by CLSI method; type: functional
[4] = tested on: Klebsiella pneumoniae; experiment: Antimicrobial activity against Klebsiella pneumoniae WH76 expressing IMP-4, TEM-1, SHV-14, CTX-M-3, qnrS1 by CLSI method; type: functional
[5] = tested on: Klebsiella pneumoniae; experiment: Antimicrobial activity against carbapenem-resistant Klebsiella pneumoniae FZ47 deficient in IMP-8, TEM-1, SHV-11, CTX-M-14, qnrB2, aac(6')-Ib, ompK35/36 by CLSI method; type: functional
[6] = tested on: Klebsiella pneumoniae; experiment: Antimicrobial activity against carbapenem-resistant Klebsiella pneumoniae GZ84 deficient in SHV-11, aac(6')-Ib-cr, ompK35 by CLSI method; type: functional
[7] = tested on: Klebsiella pneumoniae; experiment: Antimicrobial activity against Klebsiella pneumoniae CY1T expressing SHV-11, DHA-1 by CLSI method; type: functional
[8] = tested on: Escherichia coli; experiment: Antimicrobial activity against Escherichia coli C600 transconjugant GZ66T expressing SHV-11, DHA-1 by CLSI method
[9] = tested on: Klebsiella pneumoniae; experiment: Antimicrobial activity against carbapenem-resistant Klebsiella pneumoniae ZJ70 deficient in KPC-2, SHV-11, CTX-M-14, ompK35/36 by CLSI method; type: functional
[10] = tested on: Klebsiella pneumoniae; experiment: Antimicrobial activity against carbapenem-resistant Klebsiella pneumoniae ZJ68 deficient in CTX-M-15, ompK35/36 by CLSI method
[11] = tested on: Enterobacter cloacae; experiment: Antimicrobial activity against carbapenem-resistant Enterobacter cloacae WH103 deficient in IMP-4, TEM-1, CTX-M-3, qnrS1, ompC by CLSI method; type: functional
[12] = tested on: Enterobacter cloacae; experiment: Antimicrobial activity against carbapenem-resistant Enterobacter cloacae GX24 deficient in TEM-1, DHA-1, aac(6')-Ib, ompC by CLSI method; type: functional
[13] = tested on: Klebsiella pneumoniae; experiment: Antimicrobial activity against Klebsiella pneumoniae ZJ68T expressing CTX-M-15 by CLSI method; type: functional
[14] = tested on: Klebsiella pneumoniae; experiment: Antimicrobial activity against carbapenem-resistant Klebsiella pneumoniae GZ66 deficient in SHV-11, DHA-1, ompK35/36 by CLSI method; type: functional
[15] = tested on: Klebsiella pneumoniae; experiment: Antimicrobial activity against carbapenem-resistant Klebsiella pneumoniae XJ81 deficient in TEM-1, SHV-12, DHA-1, aac(6')-Ib, ompK35/36 by CLSI method; type: functional
[16] = tested on: Klebsiella pneumoniae; experiment: Antimicrobial activity against carbapenem-resistant Klebsiella pneumoniae SX67 deficient in SHV-2, CTX-M-14, DHA-1, qnrB6/S1, aac(6')-Ib-cr, ompK35/36 by CLSI method; type: functional
[17] = tested on: Klebsiella pneumoniae; experiment: Antimicrobial activity against Klebsiella pneumoniae ZJ99T expressing KPC-2, CTX-M-3, qnrS1 by CLSI method; type: functional
[18] = tested on: Escherichia coli; experiment: Antimicrobial activity against carbapenem-resistant Escherichia coli PU43 deficient in TEM-1, CTX-M-14, aac(6')-Ib, ompC/F by CLSI method; type: functional
[19] = tested on: Escherichia coli; experiment: Antimicrobial activity against carbapenem-resistant Escherichia coli PU96 deficient in TEM-1, CTX-M-14, CMY-2, ompC/F by CLSI method; type: functional
[20] = tested on: Klebsiella pneumoniae; experiment: Antimicrobial activity against Klebsiella pneumoniae ZJ70T expressing KPC-2 by CLSI method; type: functional
[21] = tested on: Citrobacter freundii; experiment: Antimicrobial activity against Citrobacter freundii SZ63 expressing IMP-4, qnrS1by CLSI method; type: functional
[22] = tested on: Citrobacter freundii; experiment: Antimicrobial activity against Citrobacter freundii SZ62 expressing IMP-4, TEM-1, CMY-2, qnrS1, aac(6')-Ib-cr by CLSI method; type: functional
[23] = tested on: Klebsiella aerogenes; experiment: Antimicrobial activity against carbapenem-resistant Enterobacter aerogenes PU41 deficient in CTX-M-14, DHA-1, qnrS1, ompC DEc, ompF by CLSI method; type: functional
[24] = tested on: Escherichia coli; experiment: Antimicrobial activity against Escherichia coli PU60T expressing CMY-2 by CLSI method; type: functional
[25] = tested on: Enterobacter cloacae; experiment: Antimicrobial activity against carbapenem-resistant Enterobacter cloacae NJ88 deficient in CTX-M-14, ompC/F by CLSI method; type: functional
[26] = tested on: Klebsiella pneumoniae; experiment: Antimicrobial activity against carbapenem-resistant Klebsiella pneumoniae PU8 deficient in SHV-11, DHA-1, aac(6')-Ib-cr, ompK35/36 by CLSI method; type: functional
[27] = tested on: Klebsiella pneumoniae; experiment: Antimicrobial activity against Klebsiella pneumoniae ZJ71T expressing KPC-2 by CLSI method; type: functional
[28] = tested on: Enterobacter cloacae; experiment: Antimicrobial activity against carbapenem-resistant Enterobacter cloacae SZ92 deficient in IMP-4, TEM-1, CTX-M-14, DHA-1, qnrB10/B4-like, aac(6')-Ib, ompC by CLSI method; type: functional
[29] = tested on: Klebsiella pneumoniae; experiment: Antimicrobial activity against carbapenem-resistant Klebsiella pneumoniae SZ61 deficient in TEM-1, SHV-1a, CMY-2, ompK35/36 by CLSI method; type: functional
[30] = tested on: Klebsiella pneumoniae; experiment: Antimicrobial activity against Klebsiella pneumoniae ZJ99 expressing KPC-2, CTX-M-3, qnrS1, ompK35 DE by CLSI method; type: functional
[31] = tested on: Klebsiella aerogenes; experiment: Antimicrobial activity against Enterobacter aerogenes PU41T expressing CTX-M-14, DHA-1, qnrS1 by CLSI method; type: functional
[32] = tested on: Klebsiella pneumoniae; experiment: Antimicrobial activity against Klebsiella pneumoniae GZ64 expressing IMP-4, ompK35/36 by CLSI method; type: functional
[33] = tested on: Escherichia coli; experiment: Antimicrobial activity against Escherichia coli ZJ87T expressing KPC-2 by CLSI method; type: functional
[34] = tested on: Klebsiella pneumoniae; experiment: Antimicrobial activity against carbapenem-resistant Klebsiella pneumoniae FZ49 deficient in IMP-8, TEM-1, SHV-11, CTX-M-14, qnrB2, aac(6')-Ib, ompK35/36 by CLSI method; type: functional
[35] = tested on: Klebsiella aerogenes; experiment: Antimicrobial activity against carbapenem-resistant Enterobacter aerogenes WH85 deficient in TEM-1, CTX-M-3, ompC/F by CLSI method; type: functional
[36] = tested on: Klebsiella pneumoniae; experiment: Antimicrobial activity against carbapenem-resistant Klebsiella pneumoniae PU4 deficient in SHV-1, DHA-1, ompK35/36 by CLSI method; type: functional
[37] = tested on: Klebsiella pneumoniae; experiment: Antimicrobial activity against Klebsiella pneumoniae WH77 expressing IMP-4, TEM-1, SHV-14, CTX-M-3, qnrS1 by CLSI method; type: functional
[38] = tested on: Klebsiella pneumoniae; experiment: Antimicrobial activity against carbapenem-resistant Klebsiella pneumoniae CY1 deficient in SHV-11, DHA-1, ompK35/36 by CLSI method; type: functional
[39] = tested on: Klebsiella pneumoniae; experiment: Antimicrobial activity against carbapenem-resistant Klebsiella pneumoniae ZJ69 deficient in SHV-28, ompK35/36 by CLSI method; type: functional
[40] = tested on: Escherichia coli; experiment: Antimicrobial activity against Escherichia coli C600 transconjugant WH76T expressing IMP-4, TEM-1, CTX-M-3, qnrS1 by CLSI method
[41] = tested on: Escherichia coli; experiment: Antimicrobial activity against Escherichia coli C600 by CLSI method; type: functional

NCC[C@H](O)C(=O)N[C@@H]1C[C@H](N)[C@@H](O[C@H]2O[C@H](CN)[C@@H](O)[C@H](O)[C@H]2O)[C@H](O)[C@H]1O[C@H]1O[C@H](CO)[C@@H](O)[C@H](N)[C@H]1O [AMIKACIN]
MIC [1]: > 256 µg/mL | MIC [2]: 8 µg/mL (≈ 13.7 µM) | MIC [3]: 0.5 µg/mL (≈ 0.854 µM) | MIC [4]: 1 µg/mL (≈ 1.71 µM) | MIC [5]: > 256 µg/mL | MIC [6]: 16 µg/mL (≈ 27.3 µM) | MIC [7]: > 256 µg/mL | MIC [8]: > 256 µg/mL | MIC [9]: > 256 µg/mL | MIC [10]: > 256 µg/mL | MIC [11]: 1 µg/mL (≈ 1.71 µM) | MIC [12]: > 256 µg/mL | MIC [13]: > 256 µg/mL | MIC [14]: > 256 µg/mL | MIC [15]: 16 µg/mL (≈ 27.3 µM) | MIC [16]: > 256 µg/mL | MIC [17]: 2 µg/mL (≈ 3.42 µM) | MIC [18]: 8 µg/mL (≈ 13.7 µM) | MIC [19]: 2 µg/mL (≈ 3.42 µM) | MIC [20]: 1 µg/mL (≈ 1.71 µM) | MIC [21]: > 256 µg/mL | MIC [22]: > 256 µg/mL | MIC [23]: > 256 µg/mL | MIC [24]: 1 µg/mL (≈ 1.71 µM) | MIC [25]: > 256 µg/mL | MIC [26]: 8 µg/mL (≈ 13.7 µM) | MIC [27]: 1 µg/mL (≈ 1.71 µM) | MIC [28]: 1 µg/mL (≈ 1.71 µM) | MIC [29]: > 256 µg/mL | MIC [30]: 0.5 µg/mL (≈ 0.854 µM) | MIC [31]: > 256 µg/mL | MIC [32]: 1 µg/mL (≈ 1.71 µM) | MIC [33]: 1 µg/mL (≈ 1.71 µM) | MIC [34]: > 256 µg/mL | MIC [35]: 1 µg/mL (≈ 1.71 µM) | MIC [36]: > 256 µg/mL | MIC [37]: 1 µg/mL (≈ 1.71 µM) | MIC [38]: > 256 µg/mL | MIC [39]: > 256 µg/mL | MIC [40]: 1 µg/mL (≈ 1.71 µM) | MIC [41]: 1 µg/mL (≈ 1.71 µM)

Reference: ChEMBL document CHEMBL1212738, “Phenotypic and genotypic characterization of Enterobacteriaceae with decreased susceptibility to carbapenems: results from large hospital-based surveillance studies in China” (2010)
